{"source": "patent US5663205A", "about": "“Pharmaceutical composition for use in glaucoma treatment” (Senju Pharmaceutical Co. Ltd., priority 1992, dated 1997)", "tested_on": "Normal Intraocular Pressure", "assay": "Test Example 2 (1): intraocular pressure reducing activity on normal intraocular pressure, pigmented rabbits", "format": "in vivo, pigmented rabbits (Dutch belted rabbits)", "method": "Intraocular Pressure Reducing Activity of Amosulalol Hydrochloride on Normal Intraocular Pressure in Pigmented Rabbits Forty (40) male pigmented rabbits (Dutch belted rabbits) weighing about 2 kg, after having been confirmed to be free from ocular abnormalities, were bred in a breeding room maintained at a temperature of 24± 4° C. and at a relative humidity of 55± 15%, while they were fed solid food (Labo RG-RO, manufactured by Nihon Nohsan Kogyo K.K.) at a daily rate of 100 g per rabbit and allowed free access to tap water as drinking water. As a test drug, amosulalol hydrochloride was processed into 0.05%, 0.5% and 1.0% aqueous solutions which were used in the test, and 0.5% timolol maleate ophthalmic solution [Timoptol (registered trademark): Ban-yu Pharmaceutical Co.] and physiological saline were used as a positive control drug and a control substance, respectively. (1) Measurement of intraocular pressure: Forty (40) rabbits were divided into five groups. each consisting of 8 heads, and 50 μl of test drug as well as the control drug and physiological saline were applied topically to one eye each of the individual rabbits, with the other being left untreated. Before instillation and 0.5, 1, 2, 3, 4, 6 and 8 hours after topical application respectively, intraocular pressure for both eyes of each rabbit was measured using PTG. Time-course changes of intraocular pressure measurements taken with the eyes treated by instillation of each of the test drugs, control drug and physiological saline, are illustrated in FIGS. 2 (for treated eyes) and 3 (for non-treated eyes), respectively, with time (hour) after instillation taken as abscissa and intraocular pressure (mmHg) as ordinate; each value in mean ± S.E. (the number in each case is 8). The signs \"a\", \"b\", \"c\", \"d\" and \"e\" designate physiological saline, 0.05% aqueous solution of amosulalol hydrochloride, 0.5% aqueous solution of amosulalol hydrochloride, 1.0% aqueous solution of amosulalol hydrochloride and 0.5% solution of timolol maleate, respectively."}
{"smiles": "COc1ccccc1OCCNCC(O)c1ccc(C)c(S(N)(=O)=O)c1.Cl", "note": "(stereo not shown) [amosulalol hydrochloride, 5-[1-hydroxy-2-[2-(2-methoxyphenoxy)ethylamino]ethyl]-2-methylbenzenesulfonamide hydrochloride]", "values": [{"measurement": "maximum drop in intraocular pressure", "setting": "0.05% aqueous solution, treated eyes, 2 hours after instillation", "value": 3.6, "unit": "mmHg"}, {"measurement": "intraocular pressure reducing activity compared with 0.5% timolol maleate ophthalmic solution", "setting": "0.05%, normal eyes", "value": "more potent intraocular pressure reducing activity"}, {"measurement": "maximum decrease in intraocular pressure", "setting": "0.5% aqueous solution, treated eyes, 2 hours after topical application", "value": 6.2, "unit": "mmHg"}, {"measurement": "significant drop in intraocular pressure until (time after topical application)", "setting": "0.5% aqueous solution, treated eyes, from 30 min", "value": 4, "unit": "h"}, {"measurement": "maximum decrease in intraocular pressure", "setting": "1.0% aqueous solution, treated eyes, 3 hours after instillation", "value": 9.0, "unit": "mmHg"}, {"measurement": "decrease in intraocular pressure sustained until (time after instillation)", "setting": "1.0% aqueous solution, treated eyes, sustained from 30 min after instillation", "value": 6, "unit": "h"}, {"measurement": "change in intraocular pressure of the other, non-treated eyes", "setting": "non-treated eyes (FIG. 3)", "value": "no significant change"}]}
